This note sets out measurements from ChEMBL document CHEMBL4825753 (J Med Chem, 2021).

Calls of active or inactive are those of the source. The rule behind the calls is not given here.

Data set [1] deals with BaF3. The experiment in a line: Antitumour activity against mouse BaF3 cells transfected with MER implanted in C57BL/6J mouse assessed as reduction in MER phosphorylation at 30 to 100 mg/kg, po bid for 6 days by western blot analysis. Type of data set: functional, organism-based. The following applies: dose 30-100 mg/kg, time 6.0 day. On the technique in general: A western blot detects proteins with antibodies after separation by electrophoresis.

A short description of data set [2]: Fraction unbound in C57BL/6J mouse implanted with mouse BaF3 cells transfected with AXL in at 3 to 100 mg/kg, po bid for 6 days. The settings on record: in vivo, dose 3-100 mg/kg, time 6 day. Type of data set: ADME, organism-based.
The target in data set [3] is T1, Receptor-type tyrosine-protein kinase FLT3 (Homo sapiens, UniProt P36888).
T1 sequence (P36888 whole entry): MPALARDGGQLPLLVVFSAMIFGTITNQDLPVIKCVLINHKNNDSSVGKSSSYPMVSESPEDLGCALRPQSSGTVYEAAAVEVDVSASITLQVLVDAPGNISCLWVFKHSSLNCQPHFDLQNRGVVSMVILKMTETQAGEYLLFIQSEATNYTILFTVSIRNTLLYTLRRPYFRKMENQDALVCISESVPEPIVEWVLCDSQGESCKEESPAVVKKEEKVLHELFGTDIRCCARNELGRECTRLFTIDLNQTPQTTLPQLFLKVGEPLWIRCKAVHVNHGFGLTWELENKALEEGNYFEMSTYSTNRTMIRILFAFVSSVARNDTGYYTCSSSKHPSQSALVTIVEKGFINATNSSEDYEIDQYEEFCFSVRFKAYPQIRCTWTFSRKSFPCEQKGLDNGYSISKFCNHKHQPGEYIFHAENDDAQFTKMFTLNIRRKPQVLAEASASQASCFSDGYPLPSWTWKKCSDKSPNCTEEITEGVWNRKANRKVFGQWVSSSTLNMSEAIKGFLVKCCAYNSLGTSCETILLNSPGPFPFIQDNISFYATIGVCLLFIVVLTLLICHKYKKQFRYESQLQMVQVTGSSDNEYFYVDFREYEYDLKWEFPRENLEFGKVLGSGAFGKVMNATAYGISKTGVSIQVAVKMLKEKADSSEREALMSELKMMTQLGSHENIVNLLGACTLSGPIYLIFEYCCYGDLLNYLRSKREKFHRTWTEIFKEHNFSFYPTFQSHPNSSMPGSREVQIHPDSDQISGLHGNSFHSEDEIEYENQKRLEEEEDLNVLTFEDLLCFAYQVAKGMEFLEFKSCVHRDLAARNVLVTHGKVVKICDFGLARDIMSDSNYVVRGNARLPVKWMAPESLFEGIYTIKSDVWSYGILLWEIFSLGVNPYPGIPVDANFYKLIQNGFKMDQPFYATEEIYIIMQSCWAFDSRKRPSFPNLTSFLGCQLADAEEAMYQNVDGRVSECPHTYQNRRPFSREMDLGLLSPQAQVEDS
The experiment in a line: Inhibition of FLAG-tagged FLT3 (unknown origin) transfected in Cos-7 cells assessed as phosphorylation level incubated for 1 hr by ELISA. Type of data set: cell-based. For orientation: ELISA stands for enzyme-linked immunosorbent assay.

Data set [4] deals with BaF3. The experiment in a line: Antitumour activity against mouse BaF3 cells transfected with MER implanted in C57BL/6J mouse assessed as reduction in tumour growth at 3 to 100 mg/kg, po bid for 6 days. Type of data set: functional, organism-based. The following applies: dose 3-100 mg/kg, time 6.0 day.
Data set [5] can be described thus: Fraction unbound in C57BL/6J mouse implanted with mouse BaF3 cells transfected with MER in at 3 to 100 mg/kg, po bid for 6 days. The following applies: in vivo, dose 3-100 mg/kg, time 6 day. Type of data set: ADME, organism-based.
The test system of data set [6] is BaF3. The experiment in a line: Antitumour activity against mouse BaF3 cells transfected with AXL implanted in C57BL/6J mouse assessed as reduction in AXL phosphorylation at 30 to 100 mg/kg, po bid for 6 days western blot analysis. Type of data set: functional, organism-based. The following applies: dose 30-100 mg/kg, time 6.0 day.
Data set [7] concerns BaF3. The experiment in a line: Growth inhibition of mouse BaF3 cells assessed as inhibition of cell growth incubated for 72 hrs by Cell-titer-Glo assay. Type of data set: functional.
For data set [8], the system named is BaF3. The experiment in a line: Growth inhibition of mouse BaF3 cells transfected with MER assessed as inhibition of cell growth incubated for 72 hrs by Cell-titer-Glo assay. Type of data set: functional.
The test system of data set [9] is BaF3. The experiment in a line: Growth inhibition of mouse BaF3 cells transfected with FLT3 assessed as inhibition of cell growth incubated for 72 hrs by Cell-titer-Glo assay. Type of data set: functional.
A further data set relates to MC-38. The experiment in a line: Antitumour activity against mouse MC38 cells implanted in C57BL6 mouse assessed as increase in survival at 100 mg/kg, po bid for 2 weeks co-treatment with anti-PD1 further treated with ionizing radiation. Type of data set: functional, organism-based.
Data set [10] is described as follows: Lipophilicity, log D of the compound at pH 7.4. Type of data set: physicochemical. The following applies: buffer.
Data set [11] deals with BaF3. The experiment in a line: Growth inhibition of mouse BaF3 cells transfected with Tyro3 assessed as inhibition of cell growth incubated for 72 hrs by Cell-titer-Glo assay. Type of data set: functional.
The subject of data set [12] is BaF3. The experiment in a line: Growth inhibition of mouse BaF3 cells transfected with AXL assessed as inhibition of cell growth incubated for 72 hrs by Cell-titer-Glo assay. Type of data set: functional.
The subject of data set [13] is BaF3. The experiment in a line: Antitumour activity against mouse BaF3 cells transfected with AXL implanted in C57BL/6J mouse assessed as reduction in tumour growth at 100 mg/kg, po bid for 6 days. Type of data set: functional, organism-based. The following applies: time 6.0 day.
Data set [14] is described as follows: Photostability of compound assessed as half life. Type of data set: physicochemical.
The nature of data set [15]: Induction efferocytosis in human PBMC assessed as CD14-positive monocytes.
Data set [16] has as its target T2, Tyrosine-protein kinase receptor UFO (Homo sapiens, UniProt P30530).
T2 sequence (P30530 whole entry): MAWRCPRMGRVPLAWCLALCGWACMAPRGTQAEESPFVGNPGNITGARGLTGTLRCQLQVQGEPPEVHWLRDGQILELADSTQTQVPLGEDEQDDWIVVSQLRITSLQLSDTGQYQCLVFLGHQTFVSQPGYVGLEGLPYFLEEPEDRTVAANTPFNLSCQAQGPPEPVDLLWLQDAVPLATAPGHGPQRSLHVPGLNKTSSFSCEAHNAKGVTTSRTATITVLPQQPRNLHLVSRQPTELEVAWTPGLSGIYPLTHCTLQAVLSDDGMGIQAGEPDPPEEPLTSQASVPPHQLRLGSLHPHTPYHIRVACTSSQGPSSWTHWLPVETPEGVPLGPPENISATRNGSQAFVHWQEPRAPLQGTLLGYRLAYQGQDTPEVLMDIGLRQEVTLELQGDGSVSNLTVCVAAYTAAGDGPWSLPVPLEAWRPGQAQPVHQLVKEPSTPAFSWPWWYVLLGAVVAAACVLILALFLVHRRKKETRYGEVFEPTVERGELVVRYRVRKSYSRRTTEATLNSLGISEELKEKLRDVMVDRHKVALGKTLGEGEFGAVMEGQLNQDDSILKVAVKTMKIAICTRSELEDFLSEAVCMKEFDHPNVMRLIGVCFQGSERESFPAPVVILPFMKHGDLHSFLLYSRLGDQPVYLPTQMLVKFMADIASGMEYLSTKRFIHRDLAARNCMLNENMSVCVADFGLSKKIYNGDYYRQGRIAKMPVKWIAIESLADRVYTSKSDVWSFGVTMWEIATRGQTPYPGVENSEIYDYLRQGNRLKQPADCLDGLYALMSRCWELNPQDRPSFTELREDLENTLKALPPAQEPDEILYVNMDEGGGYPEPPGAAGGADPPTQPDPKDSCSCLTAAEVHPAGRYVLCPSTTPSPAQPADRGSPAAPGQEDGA
The experiment in a line: Inhibition of FLAG-tagged AXL (unknown origin) transfected in Cos-7 cells assessed as phosphorylation level incubated for 1 hr by ELISA. Type of data set: cell-based.

In data set [17] the target is T3, Tyrosine-protein kinase receptor TYRO3 (Homo sapiens, UniProt Q06418).
T3 sequence (Q06418 whole entry): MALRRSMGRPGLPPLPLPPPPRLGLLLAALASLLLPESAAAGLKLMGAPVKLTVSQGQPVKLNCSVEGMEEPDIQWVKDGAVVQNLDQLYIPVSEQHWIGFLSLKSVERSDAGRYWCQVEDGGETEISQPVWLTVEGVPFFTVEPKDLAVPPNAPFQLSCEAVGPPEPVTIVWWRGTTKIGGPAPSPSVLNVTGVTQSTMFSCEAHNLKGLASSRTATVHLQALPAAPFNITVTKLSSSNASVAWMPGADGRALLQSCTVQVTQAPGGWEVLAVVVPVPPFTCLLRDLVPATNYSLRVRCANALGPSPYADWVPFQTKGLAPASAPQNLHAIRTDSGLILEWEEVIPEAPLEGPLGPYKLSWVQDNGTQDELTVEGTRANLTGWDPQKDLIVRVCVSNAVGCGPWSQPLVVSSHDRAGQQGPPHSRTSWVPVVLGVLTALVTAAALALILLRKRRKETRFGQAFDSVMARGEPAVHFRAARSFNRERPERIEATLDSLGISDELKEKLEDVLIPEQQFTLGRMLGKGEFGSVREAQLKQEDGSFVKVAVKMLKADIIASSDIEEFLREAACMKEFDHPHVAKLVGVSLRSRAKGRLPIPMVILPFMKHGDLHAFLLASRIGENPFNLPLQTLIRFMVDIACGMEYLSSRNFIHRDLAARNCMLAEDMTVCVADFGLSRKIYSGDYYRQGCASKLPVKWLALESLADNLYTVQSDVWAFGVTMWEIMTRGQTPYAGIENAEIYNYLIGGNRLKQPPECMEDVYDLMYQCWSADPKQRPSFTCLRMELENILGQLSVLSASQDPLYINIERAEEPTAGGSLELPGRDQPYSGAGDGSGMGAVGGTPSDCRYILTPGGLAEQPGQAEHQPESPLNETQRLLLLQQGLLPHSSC
The experiment in a line: Inhibition of FLAG-tagged Tyro3 (unknown origin) transfected in Cos-7 cells assessed as phosphorylation level incubated for 1 hr by ELISA. Type of data set: cell-based.

The fraction unbound is the share of the substance not bound to proteins or other matrix. A high value points to weak binding. Usually IC50 stands for the concentration that gives 50% inhibition. What is called GI50 is the concentration giving 50% growth inhibition. The logD is lipophilicity at a set pH, counting ionised and neutral species. A higher logD goes with a more lipophilic compound. On to `CN1CCN(Cc2ccc(-c3ccc(CO[C@H]4CCC[C@@H]4NC(=O)c4cc(-c5cnn(C)c5)cnc4N)cc3)cc2)CC1`, for which the outcome in the data set on BaF3 [1], in the data set on BaF3 [4], in the data set on BaF3 [6], in the data set on MC-38 and in the data set with BaF3 [13] was Active. In addition, the fraction unbound at 144 h in data set [2] and in data set [5] was 0.14 throughout. Also, the IC50 in data set [3] is 10 µM. Further, the GI50 with BaF3 [7] was 12.6 µM; in the data set on BaF3 [8], 0.00794 µM; in the data set on BaF3 [9] it was 5.01 µM; with BaF3 [11] it was 3.16 µM; in the data set with BaF3 [12], 0.0501 µM. The molecule further gave a logD in data set [10] of 2.8.
A word on the half-life: it is the time in which the quantity being followed falls by half. By pIC50 is commonly meant the negative decadic logarithm of the IC50, by convention in mol/L. On to `Cc1cc(-c2c(C)nn(C)c2C)ccc1-c1nnc(N(C)Cc2ccc3ncc(-c4ccccc4)n3c2)o1`, for which, in data set [14], the half-life was 11.4 days. Also, the half-maximal inhibitory concentration (IC50) is 7.94 µM in data set [3], 0.2 µM in [16] and 20 µM in data set [17]. Also, the pIC50 in data set [15] is 6.7. The molecule also gave a logD in data set [10] of 5.3.
